Measurements from patent US20210188843A1, “QUINOLINE COMPOUNDS AND THEIR PREPARATION AND USE AS ANTIMALARIAL AGENTS” (The United States of America,as represented by the …, priority 2018, published 2021).
Converted amounts (≈) assume the structure as drawn.

Assays:
[1] = test system: Asexual parasites of P. falciparum strain 3D7; assay: In vitro drug activity on asexual parasites (SYBR Green assay); type: cell-based; conditions: Plasmodium falciparum; Table 1; P. falciparum 3D7 asexual stage, 72 h; read-out: Asexual EC50
In short: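 3D7 asexual cultures at 0.5% parasitemia and 2% hematocrit were exposed to drug (DMSO <0.5%) for 72 h under standard culture conditions, in duplicate with no-drug and RBC-only controls. After freeze-thaw lysis, SYBR Green I lysis buffer was added for 30 min at room temperature; fluorescence was read at 490 nm excitation/520 nm emission.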

[2] = Microsomal stability (rat); type: in vitro ADME; conditions: rat microsomes, Table 1, read-out: Microsomal Stability (rat) T1/2
[3] = Solubility pH 7.4; type: physicochemical; conditions: aqueous buffer, Table 1
[4] = PAMPA permeability; type: in vitro ADME; conditions: Table 1

EC50 [1] | half-life [2] | solubility [3] | Papp [4] | Structure (SMILES)
423 nM | > 30 min | > 39 µg/mL | 1370 ×10⁻⁶ cm/s | Cc1ccc(C#N)cc1-n1c(=N)n(C)c2cnc3ccc(-c4ccccn4)cc3c21 [Compound 91, 3-(2-imino-3-methyl-8-(pyridin-2-yl)-2,3-dihydro-1H-imidazo[4,5-c]quinolin-1-yl)-4-methylbenzonitrile]
12.9 nM | > 30 min | < 1 µg/mL | 236 ×10⁻⁶ cm/s | Cc1ccc(C#N)cc1-n1/c(=N/S(N)(=O)=O)n(C)c2cnc3ccc(-c4ccc(Cl)cc4)cc3c21 [Compound 100, (8-(4-chlorophenyl)-1-(5-cyano-2-methylphenyl)-3-methyl-1,3-dihydro-2H-imidazo[4,5-c]quinolin-2-ylidene)sulfonamide]
714 nM | > 30 min | > 44 µg/mL | 1150 ×10⁻⁶ cm/s | Cc1ccc(C#N)cc1-n1c(=N)n(C)c2cnc3ccc(-c4cnc5ccccc5c4)cc3c21 [Compound 105, 3-(2-imino-3-methyl-8-(quinolin-3-yl)-2,3-dihydro-1H-imidazo[4,5-c]quinolin-1-yl)-4-methylbenzonitrile]
140 nM | > 30 min | > 49 µg/mL | 1.2 ×10⁻⁶ cm/s | Cc1ccc(C#N)cc1-n1c(=N)n(C)c2cnc3ccc(-c4ccc(OCCCN(C)C)nc4)cc3c21 [Compound 106, 3-(8-(6-(3-(dimethylamino)propoxy)pyridin-3-yl)-2-imino-3-methyl-2,3-dihydro-1H-imidazo[4,5-c]quinolin-1-yl)-4-methylbenzonitrile]
12.9 nM | 22.9 min | > 42 µg/mL | 22.6 ×10⁻⁶ cm/s | Cc1ccc(C#N)cc1-n1c(=N)n(C)c2cnc3ccc(-c4ccc5[nH]ncc5c4)cc3c21 [Compound 107, 3-(2-imino-8-(1H-indazol-5-yl)-3-methyl-2,3-dihydro-1H-imidazo[4,5-c]quinolin-1-yl)-4-methylbenzonitrile]
464 nM | > 30 min | 37.6 µg/mL (≈ 72 µM) | 255 ×10⁻⁶ cm/s | Cc1cc(N2CCN(C)CC2)c(C#N)cc1-n1c(=N)n(C)c2cnc3ccc(-c4ccc(Cl)cc4)cc3c21 [Compound 108, 5-(8-(4-chlorophenyl)-2-imino-3-methyl-2,3-dihydro-1H-imidazo[4,5-c]quinolin-1-yl)-4-methyl-2-(4-methylpiperazin-1-yl)benzonitrile]
4.33 nM | > 30 min | < 1 µg/mL | 838 ×10⁻⁶ cm/s | CC(=O)N1CCN(c2cc(C)c(-n3c(=N)n(C)c4cnc5ccc(-c6ccc(Cl)cc6)cc5c43)cc2C#N)CC1 [Compound 109, 2-(4-acetylpiperazin-1-yl)-5-(8-(4-chlorophenyl)-2-imino-3-methyl-2,3-dihydro-1H-imidazo[4,5-c]quinolin-1-yl)-4-methylbenzonitrile]
373 nM | > 30 min | < 1 µg/mL | 176 ×10⁻⁶ cm/s | Cc1cc(N2CCC2)c(C#N)cc1-n1c(=N)n(C)c2cnc3ccc(-c4ccc(Cl)cc4)cc3c21 [Compound 110, 2-(azetidin-1-yl)-5-(8-(4-chlorophenyl)-2-imino-3-methyl-2,3-dihydro-1H-imidazo[4,5-c]quinolin-1-yl)-4-methylbenzonitrile]
1830 nM | > 30 min | < 1 µg/mL | 1280 ×10⁻⁶ cm/s | Cc1cc(N2CCCCC2)c(C#N)cc1-n1c(=N)n(C)c2cnc3ccc(-c4ccc(Cl)cc4)cc3c21 [Compound 112, 5-(8-(4-chlorophenyl)-2-imino-3-methyl-2,3-dihydro-1H-imidazo[4,5-c]quinolin-1-yl)-4-methyl-2-(piperidin-1-yl)benzonitrile]
27.8 nM | 17.9 min | < 1 µg/mL | 1070 ×10⁻⁶ cm/s | Cc1ccc(C#N)cc1-n1/c(=N/S(N)(=O)=O)n(C)c2cnc3ccc(-c4cccc(F)c4)cc3c21 [Compound 116]
